From patent US20140024683A1, “CHLORIDE CHANNEL AND CHLORIDE TRANSPORTER MODULATORS FOR THERAPY IN SMOOTH MUSCLE DISEASES” (priority 2011, published 2014)
“And” between values parts separate entries of the source, which are not always exact repeats. Equal entries are not always repeated. Structures can show the parent of a compound that is named as a salt. Where two headings read alike, the source gives them in different places. Each block holds one molecule with its values, some of them ahead of it.

Assays:
[1] = tested on: rat lung slices; test: Airway lumen area in peripheral small airways of rat lung slices; conditions: contractile agonists
Method: The measurement of airway contraction of a luminal area of small lung airways using the ex vivo rat lung slice method was performed as described (Perez-Zoghbi et al., 2007). The trachea was cannulated with an intravenous catheter, and after the chest cavity was opened, the collapsed lungs were reinflated with 1.3±0.1 ml of 2% agarose (low-gelling temperature) in Sigma-Hanks' Balanced Salt solution (sHBSS), followed by the injection of 0.2±0.1 of air to flush the agarose-sHBSS out of the airways and into the distal alveolar space. Subsequently, a warm (37° C.) solution of gelatin (type A, porcine skin, 300 bloom, 6% in sHBSS) was perfused through the intrapulmonary blood vessels via the pulmonary artery by injecting about 0.3 ml into the right ventricle. The warm agar and gelatin were gelled with cold sHBSS. A single lung lobe was removed and cut into serial sections of about 130 μm thick with a vibratome at about 4° C., starting at the lung periphery. Slices were maintained in DMEM (Invitrogen) at 37° C. and 10% CO2 for up to 3 days. At 37° C., the gelatin in the blood vessel lumen dissolved, leaving the blood vessel lumen empty. Lung slices were mounted in a custom-made perfusion chamber and held in place with a small sheet of nylon mesh. A second cover glass edged with silicone grease was placed over the lung slice. Perfusion of the lung slice was performed using a gravity-fed perfusion system. The volume of the chamber was about 100 μl with a perfusion rate of about 800 μl/min. […] Digital images were recorded in time lapse (30 frames/min). The area of the bronchiole and arteriole lumen was calculated, from each image, by pixel summing using custom-written software. Experiments were performed at room temperature.

[2] = tested on: human airway smooth muscle cells; test: FLIPR potentiometric dye membrane potential assay (Examples 9, 12); type: cell-based; conditions: 10 μM
Method: To determine whether blockade of CaCCs or NKCCs induce membrane potential changes in cultured human airway smooth muscle cells, the FLIPR in vitro fluorescent dye assay (Molecular Devices) was used as described by Wafford et al. (2009). Briefly, human airway smooth muscle cells were grown to 100% confluence in 96-well black-walled plates and were washed with warmed (37° C.) normal-chloride buffer [consisting of (in mM) 130 sodium chloride, 2 CaCl2, 1 MgCl2, 10 D-glucose, and 10 HEPES, pH 7.4] four times. A stock solution (100% dye) of FLIPR blue dye (Molecular Devices) was prepared by reconstitution of 1 vial (125 mg) with 100 ml of the normal-chloride buffer (assay buffer). A 50% working stock was prepared by further diluting the reconstituted blue dye 1:1 with assay buffer and was used to load cells (90 μl/well) over 20 minutes at 37° C. All reagents were dissolved in assay buffer. Baseline fluorescence was measured for 3 minutes prior to the first control additions (assay buffer). […] The fluorescence produced by membrane potential change following solution additions was quantified after subtracting changes induced by assay buffer alone.

[3] = tested on: human airway smooth muscle cells; test: FLIPR membrane potentiometric dye assay (Example 21); type: cell-based
Method: Immortalized airway smooth muscle cell lines modified to stably express human telomerase reverse transcriptase were a kind gift from Dr. William Gerthoffer (University of Southern Alabama, Mobile, Ala.) prepared as described previously (Gosens et al., 2006) and grown in Dulbecco's Modified Eagle's Medium/F12 media (GIBCO, Grand Island, N.Y.), with 10% FBS and antibiotics.
Immortalized human airway smooth muscle cells were cultured on black-walled 96 well plates to 100% confluence, and were washed four times with warmed (37° C.) assay buffer of the following composition (in mM): NaCl 140, KCl 4.7, CaCl2 2.5, MgCl2 1.2, HEPES 11, D-glucose 10. A stock solution (100% dye) of FLIPR blue dye was prepared by reconstitution of 1 vial (125 mg) with 100 ml assay buffer. A 50% working stock was prepared by further diluting the reconstituted blue dye 1:1 with assay buffer and was used to load cells (90 μl/well) over 45 min at 37° C. in a humidified cell culture incubator (95% air/5% CO2). All reagents were dissolved in assay buffer. Fluorescence was measured with a Flex Station 3 (Molecular Devices) using an excitation wavelength of 530 nm, emission wavelength of 565 nm and a cutoff filter of 550 nm. Baseline fluorescence was measured every 2 seconds for 1 minute then for 2 minutes after injection of vehicle or compound of interest as indicated (using the Flexstation's 3 integrated injection capabilities).
Human airway smooth muscle cells were incubated with FLIPR membrane potentiometric dye to assess if the chloride channel blockers changed membrane potential at the cellular level. FLIPR fluorescence will increase with depolarization, and decrease with hyperpolarization. […] Therefore, chloride channel blockade, but not NKCC blockade, hyperpolarized human airway smooth muscle cells.

[4] = tested on: human airway smooth muscle cells; test: MQAE fluorescence assay of intracellular chloride; type: cell-based; conditions: 10 mM TEA-acetate
Method: To determine whether blockade of CaCCs or NKCCs induce changes in intracellular chloride concentrations in human airway smooth muscle cells, the MQAE in vitro fluorescent dye assay (Invitrogen) was used. Briefly, human airway smooth muscle cells were grown to 100% confluence in 96-well black-walled plates. Cells were loaded overnight with 10 mM MQAE in serum-free basal cell culture medium (M199, Invitrogen) and were washed once with warmed (37° C.) normal-chloride buffer [consisting of (in mM) 130 sodium chloride, 2 CaCl2, 1 MgCl2, 10 D-glucose, and 10 HEPES, pH 7.4]. […] An increase in fluorescence represents decreased intracellular chloride (removal of halide quenching of MQAE) while decreased fluorescence represents increased intracellular chloride (enhanced halide quenching of MQAE).

[5] = tested on: guinea pig tracheal rings; test: Relaxation of TEA contraction in guinea pig tracheal rings (Example 16, library screen); conditions: 10 mM TEA
Method: (§1) Animal protocols were approved by the Columbia University Animal Care and Use Committee. Male Hartley guinea pigs weighing approximately 400 g were anesthetized with intraperitoneal injection of sodium pentobarbital (100 mg/kg). Trachea were removed and transferred to ice cold Krebs-Henseleit (KH) buffer of the following composition (in mM): NaCl 118, KCl 5.6, CaCl2 0.5, MgSO4 0.24, NaH2PO4 1.3, NaHCO3 25, glucose 5.6, pH 7.4. Epithelial-denuded tracheal rings were prepared using a dissecting microscope. Epithelium was removed by gently passing cotton fibers through the lumen of the tracheal rings. The rings were suspended in 4 mL-water jacketed organ baths (37° C.: Radnoti Glass Technology, Monrovia, Calif.) and connected to a Grass FT03 force transducer (Grass Telefactor, West Warwick, R.I.) using silk sutures. The transducers were coupled to the computer with BioPac hardware and data was collected using Acqknowledge 7.3.3 software (BioPac Systems, Goleta, Calif.). KH buffer was bubbled with a gas mixture of 95% oxygen and 5% carbon dioxide and buffer was exchanged every 15 minutes for 1 hour during equilibration of tracheal rings at 1 g resting tension. […].

[6] = tested on: human airway smooth muscle; test: Relaxation of acetylcholine contraction in human airway smooth muscle strips; conditions: 100 μM alone; EC50 acetylcholine
Method: Studies using de-identified human tissue were reviewed by the Columbia University Institutional Review Board and deemed not human subjects research. Tissues were obtained from healthy, normal organ donor discarded surgical waste subsequent to lung transplant surgery. Tissues were collected after transplant and placed in DMEM media (GIBCO) and bubbled overnight in 5% carbon dioxide and 95% oxygen at 4° C. The following morning, the smooth muscle tissue was carefully dissected under a dissecting microscope and the epithelium removed. The strips were anchored in the organ bath as described above using KH buffer of the same composition. The strips were allowed to equilibrate for 1 hour with buffer exchanges every 15 minutes and were treated with 10^−6 M tetrodotoxin, 10^−5 M pyrilamine, and 10^−5
M MK571. Strips were contracted with an EC50 dose of acetylcholine (Ach)
This experiment was then repeated with human airway smooth muscle to investigate clinical relevance as a model of bronchospasm in humans.

[7] = tested on: guinea pig tracheal rings; test: Relaxation of potassium gluconate contraction in guinea pig tracheal rings; conditions: 100 μM; 80 mM potassium gluconate
Method: as §1
Many chloride channel blockers are known to also stimulate potassium channels (Greenwood et al., 2007). Thus, we performed additional studies in the presence of a large extracellular concentration of potassium to ensure that our findings of compound 1 or 13 inhibiting a TEA-induced depolarizing contraction were not due to these compounds opening a potassium channel.

[8] = tested on: guinea pig tracheal rings; test: Organ bath muscle force, TEA-induced contraction of guinea pig tracheal rings (Examples 1, 4, 13); conditions: for relaxation of TEA-induced contraction: 10 mM TEA
Method: Epithelial denuded guinea pig tracheal rings were suspended in organ baths under 1 g resting tension with continuous digital recordings of muscle force. In separate studies, guinea pig airway smooth muscle cells were enzymatically dispersed and cultured.
Human muscle tissue was acquired from excess lung airways trimmed during surgery from healthy lung transplant donors. Acquired tissue was stored overnight at […]. Airway smooth muscle contractions measured ex vivo in organ baths were performed as previously described (Gallos et al., 2008; Gallos et al., 2009, Gallos et al., 2011; Gleason et al., 2010; Yim et al., 2011; Mitzuta et al., 2008). Closed guinea pig tracheal rings or strips of human airway smooth muscle (tracheal or main stem bronchus) were suspended in organ baths, which had 95% oxygen constantly perfusing through Dulbecco's Modified Eagle Medium. Rings were cut on the cartilaginous borders of the smooth muscle. The epithelial layer was dissected under microscopic assistance. Briefly, tissues were suspended in a water-jacketed (37° C.) 2-ml organ bath (Radnoti Glass Technology, Monrovia, Calif.) and attached to a Grass FT03 force transducer (Grass Telefactor, West Warwick, R.I.) coupled to a computer via BioPac hardware and Acqknowledge 7.3.3 software (Biopac Systems, Goleta, Calif.). Kreb's-Henseleit (KH) buffer was continuously bubbled with 95% oxygen and 5% carbon dioxide and tissues were allowed to equilibrate at 1 g (guinea pig) or 1.5 g (human) isotonic force for 1 hour with fresh KH buffer changes every 15 minutes.
Following equilibration, in guinea pig experiments, the capsaicin analog N-vanillylnonanamide (10 μM final) was added to the organ baths to first activate and then deplete nonadrenergic, noncholinergic nerves. […]. In experiments with human tissue, no vanillylnonanamide pretreatment was done. To avoid bias between treatment groups, tissues were contracted to individually calculated EC50 values for acetylcholine and tissues with similar Emax values were randomly assigned to treatments within individual experiments. Following extensive KH buffer changes (8-9 times) tissues were allowed to stabilize at isotonic resting tension (about 1.0 g). To remove confounding effects of other procontractile pathways, each bath received a complement of antagonists 20 minutes prior to subsequent contractile challenge. The antagonists included pyrilamine (10 μM; H1 histamine receptor antagonist), and tetrodotoxin (1 μM; blocker of endogenous cholinergic or C-fiber neuronal effects) in guinea pig experiments or pyrilamine and 10 μM MK571 (leukotriene receptor antagonist) in human tissue experiments. […]
Airway smooth muscle contractions measured ex vivo in organ baths were performed as set forth above. […]

[9] = tested on: guinea pig tracheal rings; test: Potentiation of isoproterenol relaxation of acetylcholine contraction, guinea pig tracheal rings; conditions: Cavia porcellus, read-out: EC50 of isoproterenol-mediated relaxation of an acetylcholine contraction
Method: as §1
Therefore, we tested whether the chloride channel blockers or modulation of chloride flux could be used in combination with β-agonists to potentiate their effects. […]. Therefore, a combination of treatment with compound 13 and bumetanide potentiated the relaxation effect of isoproterenol.

SMILES: [Cl-].[K+] [KCl, potassium chloride]
percent decrease in lumen area compared to rest [1]: significant decrease in lumen area

SMILES: O=c1[nH]c2cc(C(F)(F)F)ccc2n1-c1cc(C(F)(F)F)ccc1O [NS1619]
membrane potential change (FLIPR) [2]: positive control for hyperpolarization | membrane potential, continuous fluorescence recording (representative tracing) [3]: hyperpolarize

SMILES: CC(=O)[O-].CC[N+](CC)(CC)CC [TEA-acetate, tetraethylammonium (TEA)-acetate]
intracellular chloride (MQAE fluorescence) [4]: decreased intracellular chloride concentrations

SMILES: O=C(O)c1cc(Cl)ccc1NCc1ccc(Cl)cc1 [compound 1, 5-chloro-2-((4-chlorobenzyl)amino)benzoic acid]
percent of the TEA-induced contraction remaining at 15 minutes ([5]; 100 μM): 23.8±14.9% | relaxed fraction of a TEA-induced contraction at 15 minutes after drug addition ([5]; 100 μM): 76.2% | relaxation of TEA-induced contraction (screen of 20-compound chloride channel blocker library) [5]: most potently relax | time to complete relaxation of TEA contraction ([5]; representative tracing): ≤ 15 min | relaxation of acetylcholine contraction [6]: 45.4%±6.3 | percent of potassium gluconate-induced contraction at 30 minutes [7]: 61.46%±6.3 and 61.5%±6.3 | membrane potential, continuous fluorescence recording (representative tracing) [3]: hyperpolarize | change in relative fluorescent units (membrane potential, FLIPR) ([3]; 100 μM, n=12): −240.3+/−35 RFU

SMILES: NS(=O)(=O)c1cc(C(=O)O)c(NCc2ccco2)cc1Cl [furosemide]
relaxation of TEA-induced contraction ([8]; 300 μM furosemide): 77.6%

EC50 ([9]; vehicle): 5.99 nM | EC50 ([9]; with 10 μM bumetanide): 2.51 nM | EC50 ([9]; with 50 μM compound 13): 2.7 nM | EC50 ([9]; with 50 μM compound 13 and 10 μM bumetanide): 0.477 nM
SMILES: CC(C)NCC(O)c1ccc(O)c(O)c1 (stereo not shown) [isoproterenol]

SMILES: COC(=O)C1=C(C)NC(C)=C(C(=O)OC)C1c1ccccc1[N+](=O)[O-] [nifedipine]
relaxation of TEA-induced contraction ([8]; 10 μM nifedipine): 111%

SMILES: O=C(O)c1cccnc1Nc1cccc(C(F)(F)F)c1 [water-soluble NFA, sodium salt of niflumic acid]
potency at relaxing airway smooth muscle (muscle force at 60 minutes as a percent of initial force after TEA treatment) ([8]; 10 μM, water soluble form compared to hydrophobic parent NFA): enhanced potency
